According to PMC7794376 (Nature Communications, 2021):
Converted amounts (≈) assume the structure as drawn. Where two headings read alike, the source gives them in different places.

Key:
MtbCoaBC = MtbCoaBC (Mycobacterium tuberculosis, UniProt P9WNZ1); assay: biochemical; format: biochemical; details: for Activity R1 / Activity R3: slope of absorbance at 360 nm vs time (s); for activity at 0.0625 µM / activity at 0.25 µM / activity at 0.5 µM / activity at 1 µM / activity at 2 µM: relative to average DMSO CT
MtbCoaBC, sequence (P9WNZ1 whole entry): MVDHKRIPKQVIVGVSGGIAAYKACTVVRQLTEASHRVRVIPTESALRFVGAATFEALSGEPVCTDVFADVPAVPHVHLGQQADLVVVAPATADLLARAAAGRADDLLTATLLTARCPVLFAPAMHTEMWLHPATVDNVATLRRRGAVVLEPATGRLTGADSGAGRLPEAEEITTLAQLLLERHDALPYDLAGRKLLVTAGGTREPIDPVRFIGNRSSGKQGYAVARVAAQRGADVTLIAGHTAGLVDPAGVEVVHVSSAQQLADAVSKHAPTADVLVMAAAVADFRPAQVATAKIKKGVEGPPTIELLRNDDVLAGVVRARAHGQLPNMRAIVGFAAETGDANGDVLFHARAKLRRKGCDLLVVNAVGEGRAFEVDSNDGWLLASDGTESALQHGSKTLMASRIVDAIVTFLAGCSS

M. tuberculosis H37Rv = assay: MIC determination in different media; format: cell-based; details: Mycobacterium tuberculosis

O=c1cc(-c2ccc(O)cc2)oc2cc(O)c(O)c(O)c12 [2c]
Activity R1 (MtbCoaBC; 0.03125 uM 2c, replicate R1): 0.0001739
Activity R3 (MtbCoaBC; 0.03125 uM 2c, replicate R3): 0.000177
inhibition at 0.0625 µM (MtbCoaBC; 0.0625 uM 2c, replicate R1, read-out: Inhibition % R1): 8.57%
activity at 0.0625 µM (MtbCoaBC; 0.0625 uM 2c, replicate R1, read-out: Activity % R1): 91.4%
Activity R1 (MtbCoaBC; 0.0625 uM 2c, replicate R1): 0.0001646
inhibition at 0.0625 µM (MtbCoaBC; 0.0625 uM 2c, replicate R2, read-out: Inhibition % R2): 5.71%
activity at 0.0625 µM (MtbCoaBC; 0.0625 uM 2c, replicate R2, read-out: Activity % R2): 94.3%
inhibition at 0.0625 µM (MtbCoaBC; 0.0625 uM 2c, replicate R3, read-out: Inhibition % R3): 10.2%
activity at 0.0625 µM (MtbCoaBC; 0.0625 uM 2c, replicate R3, read-out: Activity % R3): 89.8%
Activity R3 (MtbCoaBC; 0.0625 uM 2c, replicate R3): 0.0001617
inhibition at 0.25 µM (MtbCoaBC; 0.25 uM 2c, replicate R1, read-out: Inhibition % R1): 34%
activity at 0.25 µM (MtbCoaBC; 0.25 uM 2c, replicate R1, read-out: Activity % R1): 66%
Activity R1 (MtbCoaBC; 0.25 uM 2c, replicate R1): 0.0001189
inhibition at 0.25 µM (MtbCoaBC; 0.25 uM 2c, replicate R2, read-out: Inhibition % R2): 32.6%
activity at 0.25 µM (MtbCoaBC; 0.25 uM 2c, replicate R2, read-out: Activity % R2): 67.4%
inhibition at 0.25 µM (MtbCoaBC; 0.25 uM 2c, replicate R3, read-out: Inhibition % R3): 28.9%
activity at 0.25 µM (MtbCoaBC; 0.25 uM 2c, replicate R3, read-out: Activity % R3): 71.1%
Activity R3 (MtbCoaBC; 0.25 uM 2c, replicate R3): 0.0001279
inhibition at 0.5 µM (MtbCoaBC; 0.5 uM 2c, replicate R1, read-out: Inhibition % R1): 56.9%
activity at 0.5 µM (MtbCoaBC; 0.5 uM 2c, replicate R1, read-out: Activity % R1): 43.1%
Activity R1 (MtbCoaBC; 0.5 uM 2c, replicate R1): 0.000077692
inhibition at 0.5 µM (MtbCoaBC; 0.5 uM 2c, replicate R2, read-out: Inhibition % R2): 60.3%
activity at 0.5 µM (MtbCoaBC; 0.5 uM 2c, replicate R2, read-out: Activity % R2): 39.7%
inhibition at 0.5 µM (MtbCoaBC; 0.5 uM 2c, replicate R3, read-out: Inhibition % R3): 53.5%
activity at 0.5 µM (MtbCoaBC; 0.5 uM 2c, replicate R3, read-out: Activity % R3): 46.5%
Activity R3 (MtbCoaBC; 0.5 uM 2c, replicate R3): 0.000083810
inhibition at 1 µM (MtbCoaBC; 1 uM 2c, replicate R1, read-out: Inhibition % R1): 77.6%
activity at 1 µM (MtbCoaBC; 1 uM 2c, replicate R1, read-out: Activity % R1): 22.4%
Activity R1 (MtbCoaBC; 1 uM 2c, replicate R1): 0.000040344
inhibition at 1 µM (MtbCoaBC; 1 uM 2c, replicate R2, read-out: Inhibition % R2): 82.6%
activity at 1 µM (MtbCoaBC; 1 uM 2c, replicate R2, read-out: Activity % R2): 17.4%
inhibition at 1 µM (MtbCoaBC; 1 uM 2c, replicate R3, read-out: Inhibition % R3): 72.1%
activity at 1 µM (MtbCoaBC; 1 uM 2c, replicate R3, read-out: Activity % R3): 27.9%
Activity R3 (MtbCoaBC; 1 uM 2c, replicate R3): 0.000050204
inhibition at 2 µM (MtbCoaBC; 2 uM 2c, replicate R1, read-out: Inhibition % R1): 91.9%
activity at 2 µM (MtbCoaBC; 2 uM 2c, replicate R1, read-out: Activity % R1): 8.07%
Activity R1 (MtbCoaBC; 2 uM 2c, replicate R1): 0.000014525
inhibition at 2 µM (MtbCoaBC; 2 uM 2c, replicate R2, read-out: Inhibition % R2): 95%
activity at 2 µM (MtbCoaBC; 2 uM 2c, replicate R2, read-out: Activity % R2): 5.02%
inhibition at 2 µM (MtbCoaBC; 2 uM 2c, replicate R3, read-out: Inhibition % R3): 84.9%
activity at 2 µM (MtbCoaBC; 2 uM 2c, replicate R3, read-out: Activity % R3): 15.1%
Activity R3 (MtbCoaBC; 2 uM 2c, replicate R3): 0.000027204
activity at 0.03125 µM (MtbCoaBC; read-out: Activity % R1): 96.6%
activity at 0.03125 µM (MtbCoaBC; read-out: Activity % R2): 96.7%
activity at 0.03125 µM (MtbCoaBC; read-out: Activity % R3): 98.3%
IC50 (MtbCoaBC; read-out: IC50 EnzChek MtbCoaBC): 410 ± 30 nM
inhibition at 0.03125 µM (MtbCoaBC; read-out: Inhibition % R1): 3.4%
inhibition at 0.03125 µM (MtbCoaBC; read-out: Inhibition % R2): 3.27%
inhibition at 0.03125 µM (MtbCoaBC; read-out: Inhibition % R3): 1.68%
MIC (M. tuberculosis H37Rv; read-out: Minimum inhibitory concentration (MIC), 7H9/ADC/Glycerol): > 250 µM
MIC (M. tuberculosis H37Rv; read-out: Minimum inhibitory concentration (MIC), 7H9/Cholesterol/Tyloxapol): > 250 µM
MIC (M. tuberculosis H37Rv; read-out: Minimum inhibitory concentration (MIC), GAST/Fe): 125 µM (≈ 35.8 µg/mL)
